# Data from patent EP2802310B1, “NEW USE OF ZERUMBONE AND COMPOSITIONS COMPRISING ZERUMBONE” (Sederma, priority 2012, dated 2013).
# How the values were obtained:
# Human preadipocytes = test: Anti-differentiating effect, intracellular G3PDH activity, human preadipocytes; assay type: cell-based
# Experimental: Human preadipocytes were plated and induced to differentiate at confluence in the presence of a cocktail of specific inducers and the evaluated products. After 10 days, the layers were crushed and intracellular G3PDH activity was assayed. A cell quantification test (Hoechst) on the same extracts complements the assay.
# Dermatopontin = Dermatopontin synthesis in NHF, ELISA; assay type: cell-based, human; settings: three days
# Experimental: Principle: NHFs were put into contact with the product of the invention for two days (fibromodulin) or three days (dermatopontin). The supernatants were then assayed using ELISA tests. At the same time, the number of cells was quantified using the Hoechst method.
# MMP1 = MMP1 synthesis in NHF after UVA, ELISA; assay type: cell-based, human; settings: 24h before and 24h after UVA
# Experimental: Principle: NHFs were put into contact with the product of the invention for 24h, and then were radiated with UVA rays to trigger an experimental increase in MMP1 synthesis. The cells once again received the product for 24h and the supernatants were assayed using ELISA tests. At the same time, the number of cells was quantified using the Hoechst method.
# Cathepsin-S = Cathepsin-S in NHF under NO stress, ELISA; assay type: cell-based, human; settings: NO stress (NOC-5)
# Experimental: Principle: NHFs were put into contact with the invention product for 24h then were subjected to NO stress. NO donor, NOC-5, was introduced in the culture medium. At the end of a second 24h contact with the zerumbone extract, a cathepsin-S assay was performed using ELISA. At the same time, the number of cells was quantified using the Hoechst method.
# collagenase = test: Dermal destruction by proteases in skin explants, collagenase; settings: 18ppm of zerumbone co-injected with the protease; five days at 37°C; confocal microscope
# Experimental: Principle: Once prepared, skin explants (person, abdominal skin) received an injection of elastase or collagenase that could proteolyse 30 µmol/min of elastin or collagen. In another case, the invention product (titrated at 18ppm of zerumbone) was co-injected with the protease to assess its ability to inhibit the proteolysis of constituents of the dermis, and thus of protection of the dermis. After five days of incubation at 37°C, the result was observed through a confocal microscope and compared to what was obtained in the case without protease at the same depth (60 µm).
smiles,measurement,setting,value
"C/C1=C\CC(C)(C)/C=C/C(=O)/C(C)=C/CC1 [Zerumbone, 2E, 6E, 9E-Humulatrien-8-one]",[G3PDH],"Human preadipocytes; 0.5ppm, 10 days",144 +/- 15 mU/ 10^6 cell
same,[G3PDH],"Human preadipocytes; 1ppm, 10 days",106 +/- 14 mU/ 10^6 cell
same,[G3PDH],"Human preadipocytes; 3ppm, 10 days",30 +/- 2 mU/ 10^6 cell
same,G3PDH activity and human preadipocytes differentiation,Human preadipocytes; 5 ppm of extract,complete inhibition
same,[G3PDH],"Human preadipocytes; 5ppm, 10 days",15 +/- 3 mU/ 10^6 cell
same,inhibition at 0.5 ppm,"Human preadipocytes; Homo sapiens, 240 h, 0.5ppm, 10 days, read-out: [G3PDH] % Var / control",18%
same,inhibition at 1 ppm,"Human preadipocytes; Homo sapiens, 240 h, 1ppm, 10 days, read-out: [G3PDH] % Var / control",39%
same,inhibition at 3 ppm,"Human preadipocytes; Homo sapiens, 240 h, 3ppm, 10 days, read-out: [G3PDH] % Var / control",83%
same,inhibition at 5 ppm,"Human preadipocytes; Homo sapiens, 240 h, 5ppm, 10 days, read-out: [G3PDH] % Var / control",91%
same,Dermatopontin,Dermatopontin; 5 ppm,2540 ± 361 ng/106cell.
same,activation at 5 ppm,"Dermatopontin; Homo sapiens, 72 h, read-out: Dermatopontin % Variation",137%
same,MMP1,MMP1; 5 ppm,691 ± 225 ng/106cell.
same,inhibition at 5 ppm,"MMP1; Homo sapiens, Fibroblast, light or radiation study, read-out: MMP1 % Variation",51%
same,Cathepsin-S,Cathepsin-S; 5 ppm,290 ± 40 pg/106cell.
same,inhibition at 5 ppm,"Cathepsin-S; Homo sapiens, Fibroblast, read-out: Cathepsin-S % Variation",34%
same,integrity of the dermis under collagenase stress,collagenase,retains its integrity
